For series [1], the system named is polarized NHBE cells. The series is described as follows: Binding and internalization of cationic lipid:pDNA complexes (TOTO-1 label, trypan blue quenching). The protocol: Cells were incubated with TOTO-1 or Rh-PE labeled complexes at 37° C. for the times noted in the figure legends. Following incubation, cells were washed 7 times with cold PBS and then fixed in 2% paraformadehyde for 20 min at 4° C. The membrane of the insert was removed and mounted using immuno-mount (Shandon, Pittsburgh, Pa.) containing 2 μg/ml DAPI (Molecular Probes). Bound and internalized complexes were observed under a fluorescence microscope (Olympus, AX-70). To observe only internalized complexes, cells were washed 2 times with cold PBS and then the fluorescence of surface bound complexes was quenched by a 10 min incubation with trypan blue (1 mg/ml; Diagnostic Systems, Inc., Gibbstown, N.J.) on ice. Cells were then washed an additional 5 times with cold PBS, fixed and mounted.
Polarized NHBE cells were cultured using a modified procedure based on the methods described by Yamaya et al., American Journal of Physiology, 265:L170-L177 (1993), Jiang et al., Science, 262:424-427 (1993) and Gray et al., American Journal of Respiratory Cell & Molecular Biology, 14:104-112 (1996). Briefly, first passage NHBE cells were plated at a density of 2.5×10^5 cells/cm^2 onto inserts (Millicell-PCF, 0.4 μm pore size, Millipore) coated with human placental collagen (Sigma). The culture medium was the same as that described above for growing NHBE cells as islands. Cultures were maintained under air-liquid interface conditions starting at day 3 following the initial seeding. Cells were considered ready for use when the trans-epithelial resistance was •1000 Ωcm^2.

Series [2] deals with polarized NHBE cells. Nature of the series: In vitro transfection with GL-67:pCF1-SEAP, secreted alkaline phosphatase in apical supernatant. It is filed as cell-based, human. The protocol:
Prior to transfection, polarized NHBE cells on inserts were incubated in either Opti-MEM, Opti-MEM containing 0.1% EGTA, or in Ca^2+-free media (Gibco) in both sides of the insert for 30 min at 37° C. The cells were then washed 3 times with Opti-MEM, and incubated with unlabeled GL-67:pCF1-SEAP (40:53 μM) for 4 h at 37° C., after which they were washed 3 times with Opti-MEM. One ml of culture medium then was added to the outside of the insert (basal side) and 100 μl added to the inside of the insert (apical side). The supernatant from the apical side was collected on day 2 after transfection, heated at 65° C. for 1 h to denature endogenous alkaline phosphatases (Berger et al., Gene, 1988), and assayed in triplicate for secreted alkaline phosphatase (SEAP) activity using an alkaline phosphatase reagent (Sigma) and human placental alkaline phosphatase (Calbiochem, La Jolla, Calif.) as a standard.
To inhibit NHBE cell proliferation, aphidicolin (0.5 μg/ml; Sigma) was added to culture medium on the basal side of the polarized NHBE cells for 18 h at 37° C. The cells were then transfected as described above except that the concentrations of cationic lipid and pDNA were 80 and 107 μM, respectively. After transfection, aphidicolin was present in the culture medium until the cells were harvested. […] Retinoic acid enhanced the inhibitory effect of aphidicolin on cell proliferation (Chou, R. H. et al., Cell & Tissue Kinetics, 18:387-97, 1985).

The test system of a further series is mouse trachea. The series is described as follows: Aerosolized Ad2βgal-4 after intranasal pre-treatment, X-gal staining. It is filed as in vivo. How it is done: Viral aerosols were generated using a MiniHEART low flow jet nebulizer (Vortran, Sacramento, Calif.). The nebulizer was operated at 50 psi with compressed medical grade air at the maximum flow rate (˜2.21 pm). Animals were exposed to the aerosol in a whole-body exposure chamber. Ten ml of an Ad2βgal-4 solution (5×10^10 IU) was aerosolized over approximately one hour. Some mice were pre-treated with 50 μl of dH2O or EGTA solution by intranasal instillation 0, 15, 30, or 60 min before aerosolization, while others received no treatment prior to exposure to aerosol. X-gal staining was performed 3 days post aerosolization.
Cytochemical localization of Ogal expression in the trachea was observed using 5-bromo-4-chloro-3-indolyl-β-D-galactopyranoside (X-gal; Sigma). In brief, cannulated mouse lungs were fixed for 10 min by infusion of a fixing solution (2% paraformaldehyde and 0.2% glutaraldehyde in PBS). The lungs were then rinsed twice with 50 mM glycine in PBS, filled with X-gal solution, and stained overnight. Staining was stopped by transfering the samples into the fixing solution.

Series [3] deals with columnar epithelial cells in mouse trachea. The series is described as follows: Light and electron microscopy of trachea. The series is classed as in vivo. The source says:
Tracheas stained with X-gal were removed from the fixing solution and processed for light and electron microscopy using standard procedures. Briefly, the tissues were washed with PBS, dried in alcohols, embedded in glycol methacrylate (GMA) and stained with nuclear fast red. The Ogal-stained cells were identified by light microscopy. For electron microscopy, the fixed tissues were washed three times in Sabatini's solution (1×PBS containing 6.8% sucrose), and postfixed with 1% osmium tetroxide in 0.1 M cacodylate buffer (pH7.4) for an hour, followed by three washes with Sabatini's solution. The samples were then dehydrated with a graded series of alcohols (30, 50, 75, 90 and 100 % for 15 min each), followed by treatments with propylene oxide (15 min), a 1:1 Epon-propylene oxide mix (1 h), and three incubations in pure Epon (3 h, 3 h and overnight). Polymerization was at 64° C. overnight. After embedding, ultrathin sections were cut (MT2 Sorvall ultramicrotome) and stained with lead citrate and uranyl acetate and examined with a JEOL 100CX transmission electron microscope (TEM).

The subject of series [4] is epithelial tight junctions of mouse trachea. Nature of the series: Lanthanum precipitation in trachea under TEM. It is filed as in vivo. Conditions: treated animals vs control animals. How it is done:
Openings in tight junctions were visualized using a method described previously (Shaklai and Tavassoli, 1977; and Schneeberger and McCormack, 1984) with modifications. Briefly, mouse trachea was fixed with 2.5% glutaraldehyde, 1% lanthanum nitrate in 0.1 M cacodylate buffer, pH 7.4, for 4 to 6 h at […]. The trachea was then rinsed and washed 16 h with three changes of ice-cold 6.8% sucrose in 0.1 M cacodylate buffer ˜pH 7.4). The samples were postfixed in 1% OsO4 in 0.1 M cacodylate buffer containing 1% lanthanum nitrate pH 7.4 at 4° C. for 1 h, and dehydrated and then embedded in epoxy resin.

A further series deals with tight junctions. Particulars: compared with EDTA; cited from earlier work.

Take `O=C(O)CN(CCOCCOCCN(CC(=O)O)CC(=O)O)CC(=O)O` [EGTA, Ethylene glycol bis(B-aminoethyl ether) N,N,N′,N′-tetraacetic acid]: the “Effects of Tight Junction Disrupting Compounds on Cationic Amphiphile: DNA Complex Binding” value in the series with polarized NHBE cells [1] (Table 1, grades Very Effective / Mildly Effective) is “Very Effective”. Besides, in the series with polarized NHBE cells [1] (fully polarized NHBE cells pretreated before incubation with complexes), the complex internalization entry is “increased dramatically”. Besides, the toxicity result in the series with polarized NHBE cells [1] (pretreatment of fully polarized NHBE cells) is given as “minimal toxicity”. Besides, the “increasing the amount of internalized complex, compared with other reagents known to open tight junctions” value in the series on polarized NHBE cells [1] (vs EDTA, poly-lysine, sodium caprate, decanoylcarnitine, sodium glycocholate) is reported as “most effective”. In addition, the “increase in SEAP expression” value with polarized NHBE cells [2] (0.5 h pre-treatment, GL-67:pCF1-SEAP 40:53 μM 4 h, assayed after 48 h, FIG. 1) is about 55 fold. For the same compound, in the series on polarized NHBE cells [2] (treatment of polarized normal human bronchial epithelial cells), the “ability to transfect with cationic lipid:pDNA complexes” value is reported as “significant enhancement”. The figures for the “X-gal stained cells in trachea after AdV aerosol” value in the series with mouse trachea (50 μl of 0.1 M intranasal 30 min prior to aerosol) and in the series with mouse trachea (pretreated 1 h prior to aerosol) were “significant number of positively stained cells” and “no significant increase”, respectively. Further, the “airway epithelial cell damage by EM” value in series [3] (0.4M) is on record as “some damaged airway epithelial cells were observed”. In series [3] (treated prior to AdV instillation), the “cells transduced by AdV in cartilaginous airways” value was “localized to columnar epithelial cells”. The “penetration of lanthanum precipitates through epithelial tight junctions” value in series [4] is “penetrated through the epithelial tight junctions”. Also, the “effectiveness at disrupting tight junctions” value in the series on tight junctions is listed as “more effective than EDTA”.

The values above are taken from patent US6465007B1, “Transgene expression in polarized cells” (Genzyme Corporation, priority 1998, dated 2002).
